Experimental data from patent publication US20100010039A1, “POLYMORPHIC CRYSTAL FORM OF A INDAN-2-YLAMINO-HYDROXYETHYL-QUINOLINONE MALEATE DERIVATIVE AS BETA-ADRENOCEPTOR AGONIST” (priority 2006, published 2010).
Structures can show the parent of a compound that is named as a salt. Marks after values point to notes of the source that are not given here.

Legend:
Format in all cases: physicochemical
[1] = Stress testing: 1 month, 60° C. open container, relative humidity <30% (physico-chemical stability comparison); details: for Assay (HPLC), 1 month / Related substances (HPLC), 1 month / TG (moisture content), 1 month / XRPD (identity of the material), 1 month: after 1 month, 60° C. open, R.H. <30%; for Assay (HPLC), 1 month / Related substances (HPLC), 1 month / TG (moisture content), 1 month / XRPD (identity of the material), 1 month / Related substances (HPLC), Initial / Assay (HPLC), Initial / TG (moisture content), Initial / XRPD (identity of the material), Initial / Proneness to degradation on storage (in words): maleate; for Related substances (HPLC), Initial / Assay (HPLC), Initial / TG (moisture content), Initial / XRPD (identity of the material), Initial: before storage; for Related substances (HPLC), Initial: Qalpha value from release analysis, Amorphous value from recontrol analysis; for Assay (HPLC), Initial / TG (moisture content), Initial / XRPD (identity of the material), Initial: release / recontrol analysis; for Proneness to degradation on storage (in words): summary of both stress tests (Tables 5 and 6), 1 month, 60° C.
Experimental: (§1) Samples of crystal form Qalpha and amorphous (R)-5-[2-(5,6-diethyl-indan-2-ylamino)-1-hydroxyethyl]-8-hydroxy-1H-quinolin-2-one maleate are stress tested before and after storage for 1 month to provide for physico-chemical stability comparison.
(§2) In a first test the samples are stored at 60° C. in an open container with a relative humidity <30%. In a second test the samples are stored at 60° C. in an open container with a relative humidity of about 75%. The results are shown in Tables 5 and 6 below respectively.
(§3) The tests determine (a) purity and (b) assay as determined by high performance liquid chromatography (HPLC) using HP1100 from Agillent with a YMC-packs ODS-AQ 3 μm column; (c) identity of the material as determined by the X-ray diffraction pattern measured using a SCINTAG™ X-ray diffractometer with a CuK alpha radiation source (45 kV, 40 mA); and (d) moisture content determined using a TGA851e Mettler Toledo STAR System thermogravimetry analysis balance with nitrogen flow 50 ml/min.

[2] = Stress testing: 1 month, 60° C./75% RH open container (physico-chemical stability comparison); details: for XRPD (identity of the material), 1 month / Assay (HPLC), 1 month / Related substances (HPLC), 1 month / TG (moisture content), 1 month: after 1 month, 60° C./75% RH open; for Assay (HPLC), 1 month / Related substances (HPLC), 1 month / TG (moisture content), 1 month / Assay (HPLC), Initial / Related substances (HPLC), Initial / TG (moisture content), Initial / XRPD (identity of the material), Initial: maleate; for Assay (HPLC), Initial / Related substances (HPLC), Initial / TG (moisture content), Initial / XRPD (identity of the material), Initial: before storage, release / recontrol analysis
Experimental: as §1, §2, §3

[3] = Solubility behaviour / kinetic of dissolution in comparison to the amorphous part

CCc1cc2c(cc1CC)CC(NC[C@H](O)c1ccc(O)c3[nH]c(=O)ccc13)C2 [Amorphous, (R)-5-[2-(5,6-diethyl-indan-2-ylamino)-1-hydroxyethyl]-8-hydroxy-1H-quinolin-2-one maleate, reference compound]
Assay (HPLC), 1 month [1]: 91.5%
Related substances (HPLC), 1 month [1]: 4.3%
TG (moisture content), 1 month [1]: 0.74%
XRPD (identity of the material), 1 month [1]: Amorphous
Related substances (HPLC), Initial [1]: 0.22%#
Assay (HPLC), Initial [1]: 99.7%#
TG (moisture content), Initial [1]: 1.8%#
XRPD (identity of the material), Initial [1]: Amorphous#
Proneness to degradation on storage (in words) ([1]; listed as amorphous material): more prone to degradation than Qalpha
XRPD (identity of the material), 1 month [2]: Qalpha
Assay (HPLC), 1 month [2]: 98.9%
Related substances (HPLC), 1 month [2]: 0.73%
TG (moisture content), 1 month [2]: 0.23%
Assay (HPLC), Initial [2]: 99.7%#
Related substances (HPLC), Initial [2]: 0.22%#
TG (moisture content), Initial [2]: 1.8%#
XRPD (identity of the material), Initial [2]: Amorphous#
Conversion of solid form on storage (in words) ([2]; stored at 60° C./75% R.H.): converts to crystal form Qalpha

CCc1cc2c(cc1CC)CC(NC[C@H](O)c1ccc(O)c3[nH]c(=O)ccc13)C2 [Qalpha, (R)-5-[2-(5,6-diethyl-indan-2-ylamino)-1-hydroxyethyl]-8-hydroxy-1H-quinolin-2-one maleate]
Assay (HPLC), 1 month [1]: 98.8%
Related substances (HPLC), 1 month [1]: 0.25%
TG (moisture content), 1 month [1]: <0.05%
XRPD (identity of the material), 1 month [1]: Qalpha
Related substances (HPLC), Initial [1]: 0.23%*
Assay (HPLC), Initial [1]: 100.2%*
TG (moisture content), Initial [1]: 0.07%*
XRPD (identity of the material), Initial [1]: Qalpha*
Changes after storage (in words) ([1]; storage for 1 month, both stress tests): No significant changes
Proneness to degradation on storage (in words) ([1]; listed as crystal form Qalpha): less prone to degradation or conversion than the amorphous form on storage
XRPD (identity of the material), 1 month [2]: Qalpha
Assay (HPLC), 1 month [2]: 99.5%
Related substances (HPLC), 1 month [2]: 0.26%
TG (moisture content), 1 month [2]: <0.05%
Assay (HPLC), Initial [2]: 100.2%*
Related substances (HPLC), Initial [2]: 0.23%*
TG (moisture content), Initial [2]: 0.07%*
XRPD (identity of the material), Initial [2]: Qalpha*
Solubility behaviour: kinetic of dissolution (in words) [3]: lower kinetic of dissolution
